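These data come from cells grown in 96-well plates and exposed to compound for 48 hours at five concentrations. Abbreviation: GI50, concentration required for 50% inhibition of growth.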 Active and inactive are the calls of the source. No stated cut-off is given here; in the data, active = GI50 up to about 1.1 µM and inactive = higher.
Tests used:
Assay in all cases: NCI tumour cell line growth inhibition, 48 h
U-251 = tested on: U-251
SK-MEL-28 = tested on: SK-MEL-28
UACC-257 = tested on: UACC-257
K562 = tested on: K562
SF-268 = tested on: SF-268
SW-620 = tested on: SW-620
M14 = tested on: M14
MCF7 = tested on: MCF7
OVCAR-3 = tested on: OVCAR-3
HCC 2998 = tested on: HCC 2998
HT-29 = tested on: HT-29
SNB-75 = tested on: SNB-75
HOP-62 = tested on: HOP-62
SNB-19 = tested on: SNB-19
UACC-62 = tested on: UACC-62
HL-60 = tested on: HL-60
786-0 = tested on: 786-0
SF-539 = tested on: SF-539
ACHN = tested on: ACHN

SMILES	GI50 (U-251)	GI50 (SK-MEL-28)	GI50 (UACC-257)	GI50 (K562)	GI50 (SF-268)	GI50 (SW-620)	GI50 (M14)	GI50 (MCF7)	GI50 (OVCAR-3)	GI50 (HCC 2998)	GI50 (HT-29)	GI50 (SNB-75)	GI50 (HOP-62)	GI50 (SNB-19)	GI50 (UACC-62)	GI50 (HL-60)	GI50 (786-0)	GI50 (SF-539)	GI50 (ACHN)
c1ccc2c(c1)SCCCSCCCS2	> 100 µM (inactive)	> 100 µM (inactive)	> 100 µM (inactive)	> 100 µM (inactive)	> 100 µM (inactive)	> 100 µM (inactive)	> 100 µM (inactive)	> 100 µM (inactive)	> 100 µM (inactive)	> 100 µM (inactive)	> 10 µM (inactive)	> 100 µM (inactive)	> 100 µM (inactive)	> 100 µM (inactive)	> 100 µM (inactive)	28.1 µM (inactive)	> 100 µM (inactive)	> 100 µM (inactive)	–
CC1OC(OC2C(O[C@H]3CC[C@@]4(C)C(=CC[C@H]5[C@@H]6C[C@@H]7O[C@]8(CC[C@H](C)CN8)[C@@H](C)[C@@H]7[C@@]6(C)CC[C@@H]54)C3)OC(CO)C(O)C2OC2OC(CO)C(O)C(O)C2O)C(O)C(O)C1O (some centres undefined)	37.2 µM (inactive)	19.1 µM (inactive)	18.2 µM (inactive)	> 10 µM (inactive)	16.6 µM (inactive)	19.2 µM (inactive)	18.4 µM (inactive)	16.9 µM (inactive)	–	18.3 µM (inactive)	17.8 µM (inactive)	14.5 µM (inactive)	–	20.7 µM (inactive)	17.6 µM (inactive)	15.5 µM (inactive)	24 µM (inactive)	16.7 µM (inactive)	17.6 µM (inactive)
CC(C(=O)O)C(C)(O)C(=O)O (centres undefined)	> 100 µM (inactive)	> 100 µM (inactive)	> 100 µM (inactive)	> 100 µM (inactive)	> 100 µM (inactive)	> 100 µM (inactive)	> 100 µM (inactive)	> 100 µM (inactive)	> 100 µM (inactive)	> 100 µM (inactive)	> 100 µM (inactive)	> 100 µM (inactive)	–	> 100 µM (inactive)	> 100 µM (inactive)	> 100 µM (inactive)	> 100 µM (inactive)	> 100 µM (inactive)	–
CC(=O)OC12c3ccccc3C(c3ccccc31)C1C(=O)N(N=C(C)C)C(=O)C12 (centres undefined)	> 100 µM (inactive)	> 100 µM (inactive)	> 100 µM (inactive)	> 100 µM (inactive)	> 100 µM (inactive)	> 100 µM (inactive)	> 100 µM (inactive)	> 100 µM (inactive)	> 100 µM (inactive)	> 100 µM (inactive)	> 100 µM (inactive)	51.9 µM (inactive)	> 100 µM (inactive)	> 100 µM (inactive)	> 100 µM (inactive)	> 100 µM (inactive)	> 100 µM (inactive)	> 100 µM (inactive)	–
CCOc1ccc(/C=C2\NC(=S)N(/C=C3\C(=O)Oc4ccccc4C3=O)C2=O)cc1	29 µM (inactive)	36.8 µM (inactive)	26.6 µM (inactive)	–	22.2 µM (inactive)	37.8 µM (inactive)	31.6 µM (inactive)	17.8 µM (inactive)	21.1 µM (inactive)	32.1 µM (inactive)	32.5 µM (inactive)	23 µM (inactive)	26.1 µM (inactive)	22.8 µM (inactive)	17.5 µM (inactive)	13.7 µM (inactive)	19.2 µM (inactive)	16.3 µM (inactive)	25.5 µM (inactive)
Cc1c(O)c(C)c2c(C)cn(C(=O)C(C)(C)C)c2c1C	27.3 µM (inactive)	15.3 µM (inactive)	–	24 µM (inactive)	31.4 µM (inactive)	29.5 µM (inactive)	16.7 µM (inactive)	3.27 µM (inactive)	43.4 µM (inactive)	31.3 µM (inactive)	17.3 µM (inactive)	0.0201 µM (active)	17.5 µM (inactive)	24.8 µM (inactive)	14.7 µM (inactive)	18.7 µM (inactive)	15.2 µM (inactive)	16.4 µM (inactive)	14.2 µM (inactive)
CCOC(=O)C1C(c2ccc(OC)cc2)c2c(n[nH]c2O)CC1(O)OCC (centres undefined)	> 100 µM (inactive)	> 100 µM (inactive)	> 100 µM (inactive)	–	> 100 µM (inactive)	> 100 µM (inactive)	> 100 µM (inactive)	> 100 µM (inactive)	> 100 µM (inactive)	> 100 µM (inactive)	> 100 µM (inactive)	> 100 µM (inactive)	> 100 µM (inactive)	> 100 µM (inactive)	> 100 µM (inactive)	> 100 µM (inactive)	> 100 µM (inactive)	> 100 µM (inactive)	> 100 µM (inactive)
CCCCc1c2c(nc3c1CCCC3O)CCCC2 (centres undefined)	> 100 µM (inactive)	–	> 100 µM (inactive)	84.3 µM (inactive)	> 100 µM (inactive)	> 100 µM (inactive)	> 100 µM (inactive)	> 100 µM (inactive)	71.8 µM (inactive)	> 100 µM (inactive)	85.3 µM (inactive)	> 100 µM (inactive)	> 100 µM (inactive)	> 100 µM (inactive)	> 100 µM (inactive)	> 100 µM (inactive)	> 100 µM (inactive)	> 100 µM (inactive)	80 µM (inactive)
COC(=O)c1c(C)cccc1C1CN=NC12Cc1cccc(C)c1C2=O (centres undefined)	39.4 µM (inactive)	29.6 µM (inactive)	19.6 µM (inactive)	25.9 µM (inactive)	83.4 µM (inactive)	43.2 µM (inactive)	10.4 µM (inactive)	30.8 µM (inactive)	–	38 µM (inactive)	33 µM (inactive)	38.4 µM (inactive)	53.6 µM (inactive)	48.8 µM (inactive)	26.9 µM (inactive)	11.7 µM (inactive)	39.1 µM (inactive)	22.8 µM (inactive)	27.4 µM (inactive)
CC(=O)OC(Cc1ccc2ccccc2n1)(C(F)(F)F)C(F)(F)F	5.74 µM (inactive)	1.42 µM (inactive)	–	0.594 µM (active)	2.17 µM (inactive)	0.426 µM (active)	1.23 µM (inactive)	0.063 µM (active)	0.676 µM (active)	0.851 µM (active)	1.27 µM (inactive)	4.36 µM (inactive)	10.4 µM (inactive)	3.76 µM (inactive)	1.32 µM (inactive)	0.0205 µM (active)	1.52 µM (inactive)	2.32 µM (inactive)	3.78 µM (inactive)
Cc1cc(OC(=O)NCn2cc(-c3ccccc3)nn2)ccc1Cl	> 100 µM (inactive)	> 100 µM (inactive)	> 100 µM (inactive)	76.4 µM (inactive)	48.4 µM (inactive)	> 100 µM (inactive)	67.3 µM (inactive)	> 100 µM (inactive)	–	16.3 µM (inactive)	73.5 µM (inactive)	29.8 µM (inactive)	69.3 µM (inactive)	91.2 µM (inactive)	–	44.3 µM (inactive)	> 100 µM (inactive)	54.2 µM (inactive)	> 100 µM (inactive)
Cc1ccc(N2CCc3c(C)c(C#N)c4nc5ccccc5n4c32)cc1	38.8 µM (inactive)	> 100 µM (inactive)	> 100 µM (inactive)	–	31.8 µM (inactive)	85.9 µM (inactive)	–	> 100 µM (inactive)	> 100 µM (inactive)	> 100 µM (inactive)	> 100 µM (inactive)	22.7 µM (inactive)	36.6 µM (inactive)	37.4 µM (inactive)	27 µM (inactive)	> 100 µM (inactive)	12.1 µM (inactive)	39.3 µM (inactive)	> 100 µM (inactive)
COc1cc(OC)c2c3c(OC)cc(OC)c4c(=O)c(O)c(C[C@@H](C)O)c(c5c(C[C@@H](C)O)c(O)c(=O)c1c25)c43	23.5 µM (inactive)	20.1 µM (inactive)	34.3 µM (inactive)	–	18.9 µM (inactive)	15.5 µM (inactive)	17.4 µM (inactive)	21.2 µM (inactive)	1.02 µM (active)	16.3 µM (inactive)	18.6 µM (inactive)	14.2 µM (inactive)	22.4 µM (inactive)	57.5 µM (inactive)	–	11.3 µM (inactive)	19.1 µM (inactive)	24.8 µM (inactive)	33.4 µM (inactive)
COc1ccc(NC(=O)CC(=O)n2nc(C)c(/N=N/c3ccc(C)c(C)c3)c2C)cc1	23 µM (inactive)	> 100 µM (inactive)	> 10 µM (inactive)	–	33.8 µM (inactive)	> 100 µM (inactive)	> 100 µM (inactive)	> 100 µM (inactive)	> 100 µM (inactive)	> 100 µM (inactive)	> 100 µM (inactive)	39.2 µM (inactive)	22.9 µM (inactive)	58.3 µM (inactive)	> 100 µM (inactive)	48.3 µM (inactive)	41.6 µM (inactive)	26.5 µM (inactive)	82.6 µM (inactive)
O=C1[C@H](O)[C@@H]2CCC[C@@]23CCCN13	> 100 µM (inactive)	–	> 100 µM (inactive)	> 100 µM (inactive)	> 100 µM (inactive)	> 100 µM (inactive)	> 100 µM (inactive)	> 100 µM (inactive)	> 100 µM (inactive)	> 100 µM (inactive)	> 100 µM (inactive)	> 100 µM (inactive)	> 100 µM (inactive)	–	> 100 µM (inactive)	> 100 µM (inactive)	> 100 µM (inactive)	> 100 µM (inactive)	> 100 µM (inactive)

From ChEMBL document CHEMBL1201862, “PubChem BioAssay data set” (2004)
